In patent publication US20220281848A1, “PYRAZOLE-SUBSTITUTED PYRROLIDINONES AS HERBICIDES” (FMC Corporation, priority 2019, published 2022):

How the values were obtained:
Format in all cases: in vivo
[1] = system: velvetleaf (Abutilon theophrasti, ABUTH); assay: Test A post-emergence, velvetleaf; conditions: after 13 d
Procedure, shortened: (§1)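 Plants sown in standard soil were grown 8 d in a glasshouse (24/16 °C day/night, 14 h light, 65% humidity), then sprayed with compound in acetone/water (50:50) with 0.5% Tween 20 at 15.625, 62.5 or 250 g/ha. Damage was scored after 13 d (0 = none, 100 = total).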

[2] = system: ivy-leaved morning glory (Ipomoea hederacea, IPOHE); assay: Test A pre-emergence, ivy-leaved morning glory; conditions: after 13 d
Procedure, shortened: (§2)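 Pots of soil sown, sprayed at day 1 post-sowing: test compound at 15.625/62.5/250 g/ha in acetone:water 1:1 + 0.5% Tween 20. Glasshouse 24/16° C., 14 h light, 65% RH, watering twice daily. Readout: % damage after 13 d.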

[3] = system: plants; assay: Test D post-emergence, other plants of Tables D2 and D4; conditions: for ALOMY damage rating (100=total damage to plant; 0=no damage to plant) / AVEFA damage rating (100=total damage to plant; 0=no damage to plant) / BEAVA damage rating (100=total damage to plant; 0=no damage to plant) / BROTE damage rating (100=total damage to plant; 0=no damage to plant) / BRSNN damage rating (100=total damage to plant; 0=no damage to plant) / CHEAL damage rating (100=total damage to plant; 0=no damage to plant) / GALAP damage rating (100=total damage to plant; 0=no damage to plant) / HORVW damage rating (100=total damage to plant; 0=no damage to plant) / KCHSC damage rating (100=total damage to plant; 0=no damage to plant) / LOLPE damage rating (100=total damage to plant; 0=no damage to plant) / POAAN damage rating (100=total damage to plant; 0=no damage to plant) / POLCO damage rating (100=total damage to plant; 0=no damage to plant) / STEME damage rating (100=total damage to plant; 0=no damage to plant) / VERPE damage rating (100=total damage to plant; 0=no damage to plant): "Cereals" Postemergent, evaluated after 15 d
Procedure, shortened: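 Damage was rated visually from 0 (none) to 100 (total), at 20 DAA for pre-emergence and 15 d for post-emergence. Plants grew from safener-treated seed in a glasshouse at 24/18° C. or 20/16° C. day/night, 65% humidity, watered twice daily.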

[4] = system: redroot pigweed (Amaranthus retroflexus, AMARE); assay: Test A pre-emergence, redroot pigweed; conditions: after 13 d
Procedure, shortened: as §2

[5] = system: redroot pigweed (Amaranthus retroflexus, AMARE); assay: Test A post-emergence, redroot pigweed; conditions: after 13 d
Procedure, shortened: as §1

[6] = post-emergence, rate 130, evaluated after 15 d
[7] = post-emergence, rate 250, evaluated after 15 d
[8] = post-emergence, rate 500, evaluated after 15 d

CN1C[C@H](c2nn(C)c3c(F)cccc23)[C@@H](C(=O)Nc2cccc(F)c2F)C1=O [Compound 2]
damage to plant (100=total damage; 0=no damage) ABUTH ([1]; Post-Emergence at 15.625 g/ha): 0 | damage to plant (100=total damage; 0=no damage) ABUTH ([1]; Post-Emergence at 62.5 g/ha): 0 | damage to plant (100=total damage; 0=no damage) ABUTH ([1]; Post-Emergence at 250 g/ha): 0 | damage to plant (100=total damage; 0=no damage) IPOHE ([2]; Pre-Emergence at 15.625 g/ha): 0 | damage to plant (100=total damage; 0=no damage) IPOHE ([2]; Pre-Emergence at 62.5 g/ha): 0 | damage to plant (100=total damage; 0=no damage) IPOHE ([2]; Pre-Emergence at 250 g/ha): 0 | ALOMY damage rating (100=total damage to plant; 0=no damage to plant) ([3]; Rates 130): 0 | ALOMY damage rating (100=total damage to plant; 0=no damage to plant) ([3]; Rates 250): 10 | ALOMY damage rating (100=total damage to plant; 0=no damage to plant) ([3]; Rates 500): 30 | AVEFA damage rating (100=total damage to plant; 0=no damage to plant) ([3]; Rates 130): 0 | AVEFA damage rating (100=total damage to plant; 0=no damage to plant) ([3]; Rates 250): 10 | AVEFA damage rating (100=total damage to plant; 0=no damage to plant) ([3]; Rates 500): 40 | BEAVA damage rating (100=total damage to plant; 0=no damage to plant) ([3]; Rates 130): 10 | BEAVA damage rating (100=total damage to plant; 0=no damage to plant) ([3]; Rates 250): 20 | BEAVA damage rating (100=total damage to plant; 0=no damage to plant) ([3]; Rates 500): 10 | BROTE damage rating (100=total damage to plant; 0=no damage to plant) ([3]; Rates 130): 0 | BROTE damage rating (100=total damage to plant; 0=no damage to plant) ([3]; Rates 250): 0 | BROTE damage rating (100=total damage to plant; 0=no damage to plant) ([3]; Rates 500): 30 | BRSNN damage rating (100=total damage to plant; 0=no damage to plant) ([3]; Rates 130): 40 | BRSNN damage rating (100=total damage to plant; 0=no damage to plant) ([3]; Rates 250): 50 | BRSNN damage rating (100=total damage to plant; 0=no damage to plant) ([3]; Rates 500): 40 | CHEAL damage rating (100=total damage to plant; 0=no damage to plant) ([3]; Rates 250): 0 | CHEAL damage rating (100=total damage to plant; 0=no damage to plant) ([3]; Rates 500): 20 | GALAP damage rating (100=total damage to plant; 0=no damage to plant) ([3]; Rates 130): 0 | GALAP damage rating (100=total damage to plant; 0=no damage to plant) ([3]; Rates 250): 10 | GALAP damage rating (100=total damage to plant; 0=no damage to plant) ([3]; Rates 500): 0 | HORVW damage rating (100=total damage to plant; 0=no damage to plant) ([3]; Rates 130): 0 | HORVW damage rating (100=total damage to plant; 0=no damage to plant) ([3]; Rates 250): 20 | HORVW damage rating (100=total damage to plant; 0=no damage to plant) ([3]; Rates 500): 30 | KCHSC damage rating (100=total damage to plant; 0=no damage to plant) ([3]; Rates 130): 0 | KCHSC damage rating (100=total damage to plant; 0=no damage to plant) ([3]; Rates 250): 0 | KCHSC damage rating (100=total damage to plant; 0=no damage to plant) ([3]; Rates 500): 0 | LOLPE damage rating (100=total damage to plant; 0=no damage to plant) ([3]; Rates 130): 0 | LOLPE damage rating (100=total damage to plant; 0=no damage to plant) ([3]; Rates 250): 0 | LOLPE damage rating (100=total damage to plant; 0=no damage to plant) ([3]; Rates 500): 0 | POAAN damage rating (100=total damage to plant; 0=no damage to plant) ([3]; Rates 130): 20 | POAAN damage rating (100=total damage to plant; 0=no damage to plant) ([3]; Rates 250): 70 | POAAN damage rating (100=total damage to plant; 0=no damage to plant) ([3]; Rates 500): 80 | POLCO damage rating (100=total damage to plant; 0=no damage to plant) ([3]; Rates 130): 0 | POLCO damage rating (100=total damage to plant; 0=no damage to plant) ([3]; Rates 250): 20 | POLCO damage rating (100=total damage to plant; 0=no damage to plant) ([3]; Rates 500): 40 | STEME damage rating (100=total damage to plant; 0=no damage to plant) ([3]; Rates 130): 0 | STEME damage rating (100=total damage to plant; 0=no damage to plant) ([3]; Rates 250): 0 | STEME damage rating (100=total damage to plant; 0=no damage to plant) ([3]; Rates 500): 0 | VERPE damage rating (100=total damage to plant; 0=no damage to plant) ([3]; Rates 130): 0 | VERPE damage rating (100=total damage to plant; 0=no damage to plant) ([3]; Rates 250): 10 | VERPE damage rating (100=total damage to plant; 0=no damage to plant) ([3]; Rates 500): 0 | damage to plant (100=total damage to plant; 0=no damage to plant), ABUTH ([3]; post-emergence, ABUTH, rate 500, evaluated after 15 d): 0 | damage to plant (100=total damage to plant; 0=no damage to plant), AMARE [3, 6]: 0 | damage to plant (100=total damage to plant; 0=no damage to plant), AMARE [3, 7]: 10 | damage to plant (100=total damage to plant; 0=no damage to plant), AMARE [3, 8]: 30 | damage to plant (100=total damage to plant; 0=no damage to plant), BIDPI [3, 6]: 0 | damage to plant (100=total damage to plant; 0=no damage to plant), BIDPI [3, 7]: 0 | damage to plant (100=total damage to plant; 0=no damage to plant), BIDPI [3, 8]: 10 | damage to plant (100=total damage to plant; 0=no damage to plant), BRAPL [3, 6]: 70 | damage to plant (100=total damage to plant; 0=no damage to plant), BRAPL [3, 7]: 80 | damage to plant (100=total damage to plant; 0=no damage to plant), BRAPL [3, 8]: 80 | damage to plant (100=total damage to plant; 0=no damage to plant), CYPES [3, 6]: 0 | damage to plant (100=total damage to plant; 0=no damage to plant), CYPES [3, 7]: 0 | damage to plant (100=total damage to plant; 0=no damage to plant), CYPES [3, 8]: 0 | damage to plant (100=total damage to plant; 0=no damage to plant), DIGSA [3, 6]: 60 | damage to plant (100=total damage to plant; 0=no damage to plant), DIGSA [3, 7]: 70 | damage to plant (100=total damage to plant; 0=no damage to plant), DIGSA [3, 8]: 70 | damage to plant (100=total damage to plant; 0=no damage to plant), ECHCG [3, 7]: 80 | damage to plant (100=total damage to plant; 0=no damage to plant), ECHCG [3, 8]: 80 | damage to plant (100=total damage to plant; 0=no damage to plant), ELEIN [3, 6]: 0 | damage to plant (100=total damage to plant; 0=no damage to plant), ELEIN [3, 7]: 0 | damage to plant (100=total damage to plant; 0=no damage to plant), ELEIN [3, 8]: 0 | damage to plant (100=total damage to plant; 0=no damage to plant), EPHHL [3, 6]: 0 | damage to plant (100=total damage to plant; 0=no damage to plant), EPHHL [3, 7]: 10 | damage to plant (100=total damage to plant; 0=no damage to plant), EPHHL [3, 8]: 40 | damage to plant (100=total damage to plant; 0=no damage to plant), GLXMA [3, 6]: 0 | damage to plant (100=total damage to plant; 0=no damage to plant), GLXMA [3, 7]: 0 | damage to plant (100=total damage to plant; 0=no damage to plant), GLXMA [3, 8]: 10 | damage to plant (100=total damage to plant; 0=no damage to plant), IPOHE [3, 6]: 10 | damage to plant (100=total damage to plant; 0=no damage to plant), IPOHE [3, 7]: 20 | damage to plant (100=total damage to plant; 0=no damage to plant), IPOHE [3, 8]: 30 | damage to plant (100=total damage to plant; 0=no damage to plant), ORYSA [3, 6]: 0 | damage to plant (100=total damage to plant; 0=no damage to plant), ORYSA [3, 7]: 0 | damage to plant (100=total damage to plant; 0=no damage to plant), ORYSA [3, 8]: 10 | damage to plant (100=total damage to plant; 0=no damage to plant), PANMI [3, 6]: 0 | damage to plant (100=total damage to plant; 0=no damage to plant), PANMI [3, 7]: 0 | damage to plant (100=total damage to plant; 0=no damage to plant), PANMI [3, 8]: 0 | damage to plant (100=total damage to plant; 0=no damage to plant), SETFA [3, 6]: 70 | damage to plant (100=total damage to plant; 0=no damage to plant), SETFA [3, 7]: 70 | damage to plant (100=total damage to plant; 0=no damage to plant), SETFA [3, 8]: 80 | damage to plant (100=total damage to plant; 0=no damage to plant), SIDSP [3, 6]: 0 | damage to plant (100=total damage to plant; 0=no damage to plant), SIDSP [3, 7]: 0 | damage to plant (100=total damage to plant; 0=no damage to plant), SIDSP [3, 8]: 0 | damage to plant (100=total damage to plant; 0=no damage to plant), SORVU [3, 6]: 0 | damage to plant (100=total damage to plant; 0=no damage to plant), SORVU [3, 7]: 0 | damage to plant (100=total damage to plant; 0=no damage to plant), SORVU [3, 8]: 0 | damage to plant (100=total damage; 0=no damage) AMARE ([4]; Pre-Emergence at 15.625 g/ha): 10 | damage to plant (100=total damage; 0=no damage) AMARE ([4]; Pre-Emergence at 62.5 g/ha): 0 | damage to plant (100=total damage; 0=no damage) AMARE ([4]; Pre-Emergence at 250 g/ha): 0 | damage to plant (100=total damage; 0=no damage) AMARE ([5]; Post-Emergence at 15.625 g/ha): 0 | damage to plant (100=total damage; 0=no damage) AMARE ([5]; Post-Emergence at 62.5 g/ha): 0 | damage to plant (100=total damage; 0=no damage) AMARE ([5]; Post-Emergence at 250 g/ha): 0
